Source: PMC5502055, “Phase II study of lanreotide autogel in Japanese patients with unresectable or metastatic well-differentiated neuroendocrine tumors” (Investigational New Drugs, 2017)

System: Japanese patients with grade (G) 1/G2 NET
Test: Phase II and extension study: anti-tumor efficacy by RECIST ver. 1.1 (CBR, PFS, OS, ORR, sum of target lesion diameters)
Format: in vivo, human
Experimental: A phase II, multicenter, single-arm study was conducted at 10 sites in Japan. Patients were treated via deep subcutaneous (buttocks) injection of lanreotide at a dosage of 120 mg once every 4 weeks for a 48-week period. Patients who completed the phase II study were enrolled in an additional multicenter single-arm extension study that used the same dosage and injection methods and involved 7 of the 10 initial sites.
Japanese patients with G1 or 2 (mild/moderate malignancy) NET and an age of ≥20 years were selected for the phase II study according to the World Health Organization (WHO) 2010 classification except for those whose primary tumors were located in the lungs, bronchi, or thymus (according to the WHO 2004 classification). Other inclusion criteria were the following: metastatic disease and/or a locally advanced inoperable tumor, or refusal of surgery, and target lesions based on the Response Evaluation Criteria in Solid Tumors (RECIST) ver.1.1, and a score of 0–2 on the WHO performance status. The exclusion criteria are described in the Electronic Supplementary Material. These criteria allowed the enrolment of the same target population as that of the CLARINET study: patients with G1 or 2 NET with primary tumor sites in the pancreas, midgut, hindgut, or unknown; non-functional NET except gastrinomas adequately controlled by proton pump inhibitors for 4 months or longer; and absence of multiple endocrine neoplasia.
The primary endpoint was the clinical benefit rate (CBR) at 24 weeks after the first injection, which served to indicate and confirm the anti-tumor effects of lanreotide. The CBR was defined as the percentage of patients in the analysis set who achieved a complete response or partial response (PR) as the best overall response, or those who maintained stable disease (SD) over 24 weeks after the first injection by central review. Secondary efficacy endpoints were progression-free survival (PFS), overall survival (OS), objective response rate (ORR), and the percent change from baseline in the sum of the diameters of target lesion from baseline. The PFS was defined as the time from the first injection until progressive disease (PD) or death. Regarding tumor lesion imaging ≥4 weeks before the baseline, the investigators evaluated computed tomography (CT) or magnetic resonance imaging (MRI) data based on the RECIST (ver. 1.1). To evaluate anti-tumor effects after baseline, CT or MRI data were evaluated centrally by an independent third party based on the RECIST (ver. 1.1). During the study period, images of each patient were determined using the same method (CT or MRI), according to the standardized procedure at each site. CT or MRI was conducted every 12 weeks from the first injection. Regarding quality of life (QOL), patients completed the European Organization for Research and Treatment of Cancer (EORTC) QOL questionnaire (QLQ)-C30 (ver. 3.0) every 12 weeks during the 48 -week period after the first injection and every 24 weeks thereafter.
Full analysis set (FAS) and CLARINET-like FAS which was satisfied eligibility criteria of the CLARINET study were used for efficacy analysis. Safety analysis set which included patients who had received the study drug at least once was used for safety analysis. Per protocol set (PPS) was used for pharmacokinetic analysis.
In the primary analysis, the CBR point estimate at 24 weeks after the first injection and an exact F distribution-based 95% confidence interval (CI) were calculated. The CBR was selected as the primary endpoint, because maintaining SD was deemed beneficial and clinically meaningful for NET patients. In the secondary analysis, Kaplan–Meier curves of PFS and OS were prepared, and median values and 95% CIs were calculated. The ORRs at 24, 48, and 60 weeks after the first injection were also calculated. […]

[1] = FAS n=28, printed as decreased by

**Q.** With CC(C)[C@@H]1NC(=O)[C@H](CCCCN)NC(=O)[C@@H](Cc2c[nH]c3ccccc23)NC(=O)[C@H](Cc2ccc(O)cc2)NC(=O)[C@@H](NC(=O)[C@H](N)Cc2ccc3ccccc3c2)CSSC[C@@H](C(=O)N[C@H](C(N)=O)[C@@H](C)O)NC1=O [lanreotide] as the compound, how does the “clinical benefit rate (CBR) at 24 weeks after the first injection” value (120 mg deep s.c. every 4 weeks, full analysis set, 18/28 patients, 95% CI 44.1%, 81.4%, central review) read?
**A.** 64.3%

**Q.** What about the “CBR at 24 weeks after the first injection” value (CLARINET-like FAS, 15/22 patients, 95% CI 45.1%, 86.1%) of the same compound?
**A.** 68.2%

**Q.** And the “median PFS” value (FAS n=28, Kaplan-Meier)?
**A.** 9.1 months

**Q.** What about the “median PFS” value (FAS n=28, Kaplan-Meier, 95% CI 24.1, 53.1 weeks) of the same compound?
**A.** 36.3 weeks

**Q.** And the “percentage change from baseline in sum of diameters of target lesion at best time point, mean ± SD (decrease)” value [1]?
**A.** 3.6 ± 21.3%

**Q.** What about the “percentage change from baseline in sum of diameters of target lesion at best time point, minimum value (decrease)” value [1] of the same compound?
**A.** 58.5%

**Q.** And the “percentage change from baseline in sum of diameters of target lesion at best time point, maximum value (increase)” value (FAS n=28, printed as increased by)?
**A.** 53.4%

**Q.** What about the “CBR Week 24” value (FAS subgroup Age (years) >65, 7/12) of the same compound?
**A.** 58.3 (7/12) %

**Q.** What about the “Median time PFS” value (FAS subgroup Age (years) >65, N=12, median (95% CI)) of the same compound?
**A.** 36.64 weeks

**Q.** What about the “CBR Week 24” value (FAS subgroup Age (years) ≤65, 11/16) of the same compound?
**A.** 68.8 (11/16) %

**Q.** And the “Median time PFS” value (FAS subgroup Age (years) ≤65, N=16, median (95% CI))?
**A.** 36.29 (12.29, 53.14) weeks

**Q.** And the “CBR Week 24” value (FAS subgroup Baseline TGR (%/month) <10, 10/13)?
**A.** 76.9 (10/13) %

**Q.** And the “Median time PFS” value (FAS subgroup Baseline TGR (%/month) <10, N=13, median (95% CI))?
**A.** 59.43 weeks

**Q.** And the “CBR Week 24” value (FAS subgroup Baseline TGR (%/month) ≥10, 8/15)?
**A.** 53.3 (8/15) %

**Q.** What about the “Median time PFS” value (FAS subgroup Baseline TGR (%/month) ≥10, N=15, median (95% CI)) of the same compound?
**A.** 35.29 (12.14, 37.14) weeks

**Q.** What about the “CBR Week 24” value (FAS subgroup Grade of tumor Grade 1, 5/9) of the same compound?
**A.** 55.6 (5/9) %

**Q.** And the “CBR Week 24” value (FAS subgroup Grade of tumor Grade 2, 13/19)?
**A.** 68.4 (13/19) %

**Q.** And the “Median time PFS” value (FAS subgroup Grade of tumor Grade 2, N=19, median (95% CI))?
**A.** 36.29 (21.29, 49.14) weeks

**Q.** And the “CBR Week 24” value (FAS subgroup Hepatic tumor load (%) >10 and ≤25, 4/6)?
**A.** 66.7 (4/6) %

**Q.** And the “Median time PFS” value (FAS subgroup Hepatic tumor load (%) >10 and ≤25, N=6, median (95% CI))?
**A.** 35.79 weeks

**Q.** What about the “CBR Week 24” value (FAS subgroup Hepatic tumor load (%) >25 and ≤50, 1/3) of the same compound?
**A.** 33.3 (1/3) %

**Q.** What about the “Median time PFS” value (FAS subgroup Hepatic tumor load (%) >25 and ≤50, N=3, median (95% CI)) of the same compound?
**A.** 25.14 (24.14, 37.14) weeks

**Q.** What about the “CBR Week 24” value (FAS subgroup Hepatic tumor load (%) >50, 1/1) of the same compound?
**A.** 100.0 (1/1) %

**Q.** What about the “CBR Week 24” value (FAS subgroup Hepatic tumor load (%) ≥0 and ≤10, 12/18) of the same compound?
**A.** 66.7 (12/18) %

**Q.** What about the “Median time PFS” value (FAS subgroup Hepatic tumor load (%) ≥0 and ≤10, N=18, median (95% CI)) of the same compound?
**A.** 36.36 (21.29, 59.43) weeks

**Q.** What about the “CBR Week 24” value (FAS subgroup Ki67 index (%) >2 and ≤5, 5/8) of the same compound?
**A.** 62.5 (5/8) %

**Q.** And the “Median time PFS” value (FAS subgroup Ki67 index (%) >2 and ≤5, N=8, median (95% CI))?
**A.** 42.72 weeks

**Q.** What about the “CBR Week 24” value (FAS subgroup Ki67 index (%) >5 and <10, 8/9) of the same compound?
**A.** 88.9 (8/9) %

**Q.** And the “Median time PFS” value (FAS subgroup Ki67 index (%) >5 and <10, N=9, median (95% CI))?
**A.** 36.29 (21.29, 53.14) weeks

**Q.** What about the “CBR Week 24” value (FAS subgroup Ki67 index (%) Unknown, 0/1) of the same compound?
**A.** 0.0 (0/1) %

**Q.** And the “Median time PFS” value (FAS subgroup Ki67 index (%) Unknown, N=1, 95% CI NC)?
**A.** 12.14 weeks

**Q.** And the “CBR Week 24” value (FAS subgroup Ki67 index (%) ≤ 2, 5/8)?
**A.** 62.5 (5/8) %

**Q.** And the “CBR Week 24” value (FAS subgroup Ki67 index (%) ≥10 and <20, 0/2)?
**A.** 0.0 (0/2) %

**Q.** And the “Median time PFS” value (FAS subgroup Ki67 index (%) ≥10 and <20, N=2, median (95% CI))?
**A.** 12.07 (12.00, 12.14) weeks

**Q.** What about the “CBR Week 24” value (FAS subgroup Sex Female, 6/9) of the same compound?
**A.** 66.7 (6/9) %

**Q.** And the “Median time PFS” value (FAS subgroup Sex Female, N=9, median (95% CI))?
**A.** 53.14 weeks

**Q.** What about the “CBR Week 24” value (FAS subgroup Sex Male, 12/19) of the same compound?
**A.** 63.2 (12/19) %

**Q.** What about the “Median time PFS” value (FAS subgroup Sex Male, N=19, median (95% CI)) of the same compound?
**A.** 36.14 (12.29, 49.14) weeks

**Q.** What about the “CBR Week 24” value (FAS subgroup primary tumor site Foregut (except for pancreas), 0/1) of the same compound?
**A.** 0.0 (0/1) %

**Q.** And the “Median time PFS” value (FAS subgroup primary tumor site Foregut (except for pancreas), N=1, 95% CI NC)?
**A.** 12.00 weeks

**Q.** And the “CBR Week 24” value (FAS subgroup primary tumor site Hindgut, 2/8)?
**A.** 25.0 (2/8) %

**Q.** What about the “Median time PFS” value (FAS subgroup primary tumor site Hindgut, N=8, median (95% CI)) of the same compound?
**A.** 22.65 (12.14, 49.14) weeks

**Q.** And the “CBR Week 24” value (FAS subgroup primary tumor site Midgut, 2/2)?
**A.** 100.0 (2/2) %

**Q.** What about the “CBR Week 24” value (FAS subgroup primary tumor site Other/ Unknown, 4/5) of the same compound?
**A.** 80.0 (4/5) %

**Q.** What about the “Median time PFS” value (FAS subgroup primary tumor site Other/ Unknown, N=5, median (95% CI)) of the same compound?
**A.** 36.14 weeks

**Q.** What about the “CBR Week 24” value (FAS subgroup primary tumor site Pancreas, 10/12) of the same compound?
**A.** 83.3 (10/12) %

**Q.** And the “Median time PFS” value (FAS subgroup primary tumor site Pancreas, N=12, median (95% CI))?
**A.** 36.79 (24.14, 59.43) weeks

**Q.** What about the “CBR Week 24” value (FAS subgroup prior treatment for NET Absent, 6/6) of the same compound?
**A.** 100.0 (6/6) %

**Q.** And the “CBR Week 24” value (FAS subgroup prior treatment for NET Present, 12/22)?
**A.** 54.5 (12/22) %

**Q.** What about the “Median time PFS” value (FAS subgroup prior treatment for NET Present, N=22, median (95% CI)) of the same compound?
**A.** 36.22 (12.29, 49.14) weeks

**Q.** And the “CBR Week 24” value (FAS subgroup progressive disease at baseline Absent, 13/17)?
**A.** 76.5% (13/17)

**Q.** And the “Median time PFS” value (FAS subgroup progressive disease at baseline Absent, N=17, median (95% CI))?
**A.** 53.14 weeks

**Q.** And the “CBR Week 24” value (FAS subgroup progressive disease at baseline Present, 5/11)?
**A.** 45.5% (5/11)

**Q.** And the “Median time PFS” value (FAS subgroup progressive disease at baseline Present, N=11, median (95% CI))?
**A.** 25.14 (12.00, 37.14) weeks

**Q.** And the “patients without increase in sum of diameters of target lesion at best time point” value (FAS, 16 of 28 patients)?
**A.** 57.1%

**Q.** And the “patients with PR or SD as best overall response” value (FAS, 22 of 28 patients)?
**A.** 78.6%

**Q.** And the “ORR at Week 60” value (FAS, 1 patient with PR at 60 weeks in extension study, 95% CI 0.1%, 18.3%)?
**A.** 3.6%

**Q.** And the “median OS” value (Kaplan-Meier)?
**A.** not reached

**Q.** What about the “Forty-eight weeks survival rate” value (Kaplan-Meier estimate) of the same compound?
**A.** 96.4%

**Q.** And the “median PFS” value (population with PD at baseline (11 patients))?
**A.** 6.3 months

**Q.** And the “median PFS” value (population with PD at baseline (11 patients), 95% CI 12.0, 37.1 weeks)?
**A.** 25.1 weeks

**Q.** And the “median PFS” value (population without PD at baseline (17 patients))?
**A.** 13.3 months

**Q.** What about the “median PFS” value (population without PD at baseline (17 patients), 95% CI 24.1 weeks, Not calculable) of the same compound?
**A.** 53.1 weeks
